Target: T1, P2Y12 receptor (Homo sapiens, UniProt Q9H244)
T1 construct: expressed in transfected cells; host or cells: CHO cells (membranes)
Assay: Functional inhibition of 2-Me-S-ADP induced P2Y12 signalling (35S-GTPγS, cell membranes from P2Y12 transfected CHO-cells)
Assay type: biochemical
Details: EC80 concentration of agonist 2-methyl-thio-adenosine diphosphate, 30° C., 45 min
Method: Functional inhibition of-the P2Y12 receptor can be measured by in vitro assays using cell membranes from P2Y12 transfected CHO-cells, the methodology is indicated below.
(§1) Functional inhibition of 2-Me-S-ADP induced P2Y12 signalling: 5 μg of membranes were diluted in 200 μl of 200 mM NaCl, 1 mM MgCl2, 50 mM HEPES (pH 7.4), 0.01% BSA, 30μg/ml saponin and 10 μM GDP. To this was added an EC80 concentration of agonist (2-methyl-thio-adenosine diphosphate), the required concentration of test compound and 0.1 μCi ^35S-GTPγS. The reaction was allowed to proceed at 30° C. for 45 min. Samples were then transferred on to GF/B filters using a cell harvester and washed with wash buffer (50 mM Tris (pH 7.4), 5 mM MgCl2, 50 mM NaCl). Filters were then covered with scintilant and counted for the amount of ^35S-GTPγS retained by the filter. Maximum activity was that determined in the presence of the agonist and minimum activity in the absence of the agonist following subtraction of the value determined for non-specific activity. The effect of compounds at various concentrations was plotted according to the equation
y=A+((B−A)/(1+((C/x)̂D)))
and IC50 estimated where • A is the bottom plateau of the curve i.e. the final minimum y value • B is the top of the plateau of the curve i.e. the final maximum y value • C is the x value at the middle of the curve. This represents the log EC50 value when A+B=100 • D is the slope factor. • x is the original known x values. • Y is the original known y values.
as §1, with “30 μg/ml” for “30μg/ml”, “0. 1” for “0.1”

T1 sequence (Q9H244 whole entry): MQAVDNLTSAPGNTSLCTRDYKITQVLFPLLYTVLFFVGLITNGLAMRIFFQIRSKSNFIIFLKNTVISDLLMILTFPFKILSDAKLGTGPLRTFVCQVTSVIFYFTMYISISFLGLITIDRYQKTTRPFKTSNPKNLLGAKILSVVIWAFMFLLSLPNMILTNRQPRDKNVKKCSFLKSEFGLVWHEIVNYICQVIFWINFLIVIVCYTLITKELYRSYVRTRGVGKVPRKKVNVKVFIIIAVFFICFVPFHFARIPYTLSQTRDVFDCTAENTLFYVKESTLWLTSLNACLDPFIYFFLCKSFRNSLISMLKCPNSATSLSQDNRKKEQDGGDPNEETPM

IC50 [µM] | Compound
0.024 | CCOC(=O)c1cc(C#N)c(N2CCC(C(=O)NS(=O)(=O)Cc3ccc(F)cc3Cl)CC2)nc1OC [Example 17, Ethyl6-(4-{[(2-chloro-4-fluorobenzyl)sulfonyl]carbamoyl}piperidin-1-yl)-5-cyano-2-methoxynicotinate]
0.01 | CCOC(=O)c1cc(C#N)c(N2CCC(C(=O)NS(=O)(=O)Cc3ccc(Cl)cc3F)CC2)nc1OC [Example 18, Ethyl6-(4-{[(4-chloro-2-fluorobenzyl)sulfonyl]carbamoyl}piperidin-1-yl)-5-cyano-2-methoxynicotinate]
0.031 | CCOC(=O)c1cc(C#N)c(N2CCC(C(=O)NS(=O)(=O)Cc3cccc(F)c3F)CC2)nc1OC [Example 19, Ethyl5-cyano-6-(4-{[(2,3-difluorobenzyl)sulfonyl]carbamoyl}piperidin-1-yl)-2-methoxynicotinate]
0.102 | CCOC(=O)c1cc(C#N)c(N2CC(C(=O)NS(=O)(=O)c3ccccc3)C2)nc1OC [Example 20, Ethyl5-cyano-2-methoxy-6-{3-[(phenylsulfonyl)carbamoyl]azetidin-1-yl}nicotinate]
0.012 | CCOC(=O)c1cc(C#N)c(N2CC(C(=O)NS(=O)(=O)Cc3ccccc3Cl)C2)nc1OC [Example 22, Ethyl6-(3-{[(2-chlorobenzyl)sulfonyl]carbamoyl}azetidin-1-yl)-5-cyano-2-methoxynicotinate]
0.044 | CCOC(=O)c1cc(C#N)c(N2CC(C(=O)NS(=O)(=O)Cc3cccc(F)c3)C2)nc1OC [Example 23, Ethyl5-cyano-6-(3-{[(3-fluorobenzyl)sulfonyl]carbamoyl}azetidin-1-yl)-2-methoxynicotinate]
0.009 | CCOC(=O)c1cc(C#N)c(N2CC(C(=O)NS(=O)(=O)Cc3ccc(F)cc3)C2)nc1OC [Example 24, Ethyl5-cyano-6-(3-{[(4-fluorobenzyl)sulfonyl]carbamoyl}azetidin-1-yl)-2-methoxynicotinate]
0.006 | CCOC(=O)c1cc(C#N)c(N2CC(C(=O)NS(=O)(=O)Cc3ccc(Cl)cc3)C2)nc1OC [Example 25, Ethyl6-(3-{[(4-chlorobenzyl)sulfonyl]carbamoyl}azetidin-1-yl)-5-cyano-2-methoxynicotinate]
0.012 | CCOC(=O)c1cc(C#N)c(N2CC(C(=O)NS(=O)(=O)Cc3ccc(C(F)(F)F)cc3)C2)nc1OC [Example 26, Ethyl5-cyano-2-methoxy-6-[3-({[4-(trifluoromethyl)benzyl]sulfonyl}carbamoyl)azetidin-1-yl]nicotinate]
0.035 | CCOC(=O)c1cc(C#N)c(N2CC(C(=O)NS(=O)(=O)Cc3ccc(F)c(F)c3)C2)nc1OC [Example 27, Ethyl5-cyano-6-(3-{[(3,4-difluorobenzyl)sulfonyl]carbamoyl}azetidin-1-yl)-2-methoxynicotinate]
0.005 | CCOC(=O)c1cc(C#N)c(N2CC(C(=O)NS(=O)(=O)Cc3ccc(Cl)cc3Cl)C2)nc1OC [Example 28, Ethyl5-cyano-6-(3-{[(2,4-dichlorobenzyl)sulfonyl]carbamoyl}azetidin-1-yl)-2-methoxynicotinate]
0.01 | CCOC(=O)c1cc(C#N)c(N2CC(C(=O)NS(=O)(=O)Cc3ccc(F)cc3F)C2)nc1OC [Example 29, Ethyl5-cyano-6-(3-{[(2,4-difluorobenzyl)sulfonyl]carbamoyl}azetidin-1-yl)-2-methoxynicotinate]
0.009 | CCOC(=O)c1cc(C#N)c(N2CC(C(=O)NS(=O)(=O)Cc3ccc(F)cc3Cl)C2)nc1OC [Example 30, Ethyl6-(3-{[(2-chloro-4-fluorobenzyl)sulfonyl]carbamoyl}azetidin-1-yl)-5-cyano-2-methoxynicotinate]
0.005 | CCOC(=O)c1cc(C#N)c(N2CC(C(=O)NS(=O)(=O)Cc3ccc(Cl)cc3F)C2)nc1OC [Example 31, Ethyl6-(3-{[(4-chloro-2-fluorobenzyl)sulfonyl]carbamoyl}azetidin-1-yl)-5-cyano-2-methoxynicotinate]
0.083 | CCOC(=O)c1cc(C#N)c(N2CC(C(=O)NS(=O)(=O)Cc3cccc(F)c3F)C2)nc1OC [Example 32, Ethyl5-cyano-6-(3-{[(2,3-difluorobenzyl)sulfonyl]carbamoyl}azetidin-1-yl)-2-methoxynicotinate]
0.069 | CCOCc1nc(N2CC(C(=O)NS(=O)(=O)Cc3ccccc3)C2)c(C#N)cc1C(=O)OCC [Example 33, Ethyl6-{3-[(benzylsulfonyl)carbamoyl]azetidin-1-yl}-5-cyano-2-(ethoxymethyl)nicotinate]
0.034 | CCOCc1nc(N2CCC(C(=O)NS(=O)(=O)Cc3ccccc3)CC2)c(C#N)cc1C(=O)OCC [Example 34, Ethyl6-{4-[(benzylsulfonyl)carbamoyl]piperidin-1-yl}-5-cyano-2-(ethoxymethyl)nicotinate]
0.055 | CCOC(=O)c1cc(C#N)c(N2CCC(C(=O)NS(=O)(=O)Cc3ccccc3)CC2)nc1COCc1ccccc1 [Example 36, Ethyl2-[(benzyloxy)methyl]-6-{4-[(benzylsulfonyl)carbamoyl]piperidin-1-yl}-5-cyanonicotinate]
0.047 | CCOC(=O)c1cc(C#N)c(N2CC(C(=O)NS(=O)(=O)Cc3ccccc3)C2)nc1CO [Example 37, Ethyl6-{3-[(benzylsulfonyl)carbamoyl]azetidin-1-yl}-5-cyano-2-(hydroxymethyl)nicotinate]
0.047 | CCOC(=O)c1cc(C#N)c(N2CC(C(=O)NS(=O)(=O)Cc3ccccc3)C2)nc1OCC [Example 38, Ethyl6-{3-[(benzylsulfonyl)carbamoyl]azetidin-1-yl}-5-cyano-2-ethoxynicotinate]
0.032 | CCOC(=O)c1cc(C#N)c(N2CC(C(=O)NS(=O)(=O)Cc3ccc(F)cc3)C2)nc1OCC [Example 39, Ethyl5-cyano-2-ethoxy-6-(3-{[(4-fluorobenzyl)sulfonyl]carbamoyl}azetidin-1-yl)nicotinate]
0.031 | CCOC(=O)c1cc(C#N)c(N2CC(C(=O)NS(=O)(=O)Cc3ccccc3F)C2)nc1OCC [Example 40, Ethyl5-cyano-2-ethoxy-6-(3-{[(2-fluorobenzyl)sulfonyl]carbamoyl}azetidin-1-yl)nicotinate]
0.087 | CCOC(=O)c1cc(C#N)c(N2CC(C(=O)NS(=O)(=O)Cc3ccc(F)cc3F)C2)nc1OCC [Example 41, Ethyl5-cyano-6-(3-{[(2,4-difluorobenzyl)sulfonyl]carbamoyl}azetidin-1-yl)-2-ethoxynicotinate]
0.135 | CCOC(=O)c1cc(C#N)c(N2CC(C(=O)NS(=O)(=O)Cc3ccccc3)C2)nc1COCc1ccc(OC)c(OC)c1 [Example 42, Ethyl6-{3-[(benzylsulfonyl)carbamoyl]azetidin-1-yl}-5-cyano-2-{[(3,4-dimethoxybenzyl)oxy]methyl}nicotinate]
0.132 | CCOC(=O)c1cc(Cl)c(N2CCC(C(=O)NS(=O)(=O)Cc3ccc(Cl)cc3)CC2)nc1SC [Example 43, Ethyl5-chloro-6-(4-{[(4-chlorobenzyl)sulfonyl]carbamoyl}piperidin-1-yl)-2-(methylthio)nicotinate]
0.042 | CCOC(=O)c1cc(F)c(N2CCC(C(=O)NS(=O)(=O)Cc3ccccc3)CC2)nc1SC [Example 44, Ethyl6-{4-[(benzylsulfonyl)carbamoyl]piperidin-1-yl}-5-fluoro-2-(methylthio)nicotinate]
0.06 | CCOC(=O)c1cc(C#N)c(N2CCC(C(=O)NS(=O)(=O)Cc3ccccc3)CC2)nc1CCOC [Example 45, Ethyl6-{4-[(benzylsulfonyl)carbamoyl]piperidin-1-yl}-5-cyano-2-(2-methoxyethyl)nicotinate]
0.048 | CCOC(=O)c1cc(F)c(N2CCC(C(=O)NS(=O)(=O)Cc3ccccc3)CC2)nc1Cl [Example 46, Ethyl6-{4-[(benzylsulfonyl)carbamoyl]piperidin-1-yl}-2-chloro-5-fluoronicotinate]
0.077 | CCOC(=O)c1cc(C#N)c(N2CCC(C(=O)NS(=O)(=O)Cc3ccccc3)CC2)nc1Cn1cncn1 [Example 47, Ethyl6-{4-[(benzylsulfonyl)carbamoyl]piperidin-1-yl}-5-cyano-2-(1H-1,2,4-triazol-1-ylmethyl)nicotinate]
0.032 | CCOC(=O)c1cc(C#N)c(N2CCC(C(=O)NS(=O)(=O)Cc3ccccc3)CC2)nc1Cn1ccnn1 [Example 48]

— patent US20080171732A1, “New Pyridine Analogues IX 519” (AstraZeneca AB, priority 2007, published 2008)
